Experimental data as given in patent US20250332078A1, “COSMETIC AND/OR PHARMACEUTICAL COMPOSITIONS CONTAINING CANNABINOIDS” (priority 2020, published 2025).
Where two headings read alike, the source gives them in different places.

Legend:
[1] = Colour stability of cannabidiol/bisabolol blend with stabilizers (LICO 690, L*a*b, ΔE); type: physicochemical; details: FIG. 2
Method: Colour Stability is an important criterion for customers. Particularly, a product should not change colour during storage. Especially long term stability at room temperature dark stored (RTD) is important, as this simulates storage at a customer. To evaluate effect different antioxidants are tested in common used concentration (see Table 7). Colour is evaluated with LICO 690 (L*a*b-system). Results are compared with ΔE according to the following equation: […]

[2] = Color stabilization in o/w emulsion formulation; type: physicochemical
Method: Besides colour stability of pure product for end customer colour stability of the formulation is even more important. Discoloration is related for customer to shelf life, reduced efficacy and microbial contamination. Therefore, blends were tested in simple o/w emulsions adding an amino carboxylate and in the alternative a phytic acid salt. The results are shown in […]

[3] = Recrystallization in emulsion (Olympus microscope IX-70, polarized light); type: physicochemical
Method: To save energy and reduce CO2 there's a trend for cold process emulsions. So it's recommended to use liquid ingredients or well soluble ingredients. […] Recrystallization is evaluated with Olympus microscope IX-70 (60fold) polarized light. As synergist effects in terms of efficacy had been observed, SymDStress is solved in Dragosantol® 100 (Bisabolol). […] The mixture is suitable for cold/cold, hot/cold and cold/cold process emulsions, gels etc.
As synergist effects in terms of efficacy had been observed, SymD Stress is solved in Dragosantol® 100 (Bisabolol). […] Mixture is suitable for cold/cold, hot/cold and cold/cold process emulsions, gels. […] (see FIG. 1). After 6M 5° C. no change in formulation containing Bisabolol. Bisabolol is a very effective solvent for Cannabidiol and helps to prevent recrystallization in target application.

[4] = tested on: NHDF cells; test: DCF assay, cellular anti-oxidative capacity (ROS reduction); type: cell-based, human
Method: To quantify intracellular radicals in a cell model the dichlorofluorescein (DCF) assay was performed. Therefore, normal dermal human fibroblasts were used as a model for the skin dermis, where ROS would damage cells and the surrounding tissue, which as opposed to keratinocytes accumulate damage over the human life time. […] By intracellular esterases and oxidation, the non-fluorescent H2DCFDA is converted to the highly fluorescent 2′,7′-dichlorofluorescein (DCF). The non-fluorescent fluorescin (2′,7′-dichlorofluorescein diacetate (DCFH-DA) pass the cell membranes. In the cytoplasm, it is cleaved by intracellular esterases and thereby trapped in the cell. The oxidation of DCFH to DCF by intracellularly existing ROS originated from H2O2 added to the cells (reactive oxygen species) results in fluorescence.
Determination of the anti-oxidative capacity is performed in 96-well microplates from Nunc (Wiesbaden, Germany) and with the microplate reader “Spark” from Tecan (Crailsheim, Germany).
Cells are seeded in a black 96 well microplate with transparent bottom and incubated at 37° C. After 24 hours the cells were starved with 0.1% FBS for 24 h. Then the supernatant is aspirated and the test samples are added and incubated for 24 h. As a positive control Trolox is always co-tested. Then the DCF Assay is performed and the fluorescence is measured from bottom of well at EX/EM 485/528 nm. The cellular AOX capacity is expressed in percent as ROS reduction, which can be determined by rule of proportion in combination with the control.

[5] = Water solubility; type: physicochemical
[6] = ABTS assay, chemical anti-oxidative capacity
Method: The ABTS-Assay is a cell free in vitro test for the evaluation of the chemical AOX capacity. The assay principle bases on the reduction and the involved de-colorization of the green colored cationic radical 2,2′-Azinobis(3-ethylbenzothiazoline 6-sulfonic acid) (ABTS+) by antioxidants. The de-colorization can be measured photometrically at 734 nm. Determination of the anti-oxidative capacity is performed in 96-well microplates from Nunc (Wiesbaden, Germany) and with the microplate reader “Spark” from Tecan (Crailsheim, Germany).
Samples were incubated for 10 min at 30° C. with the 2,2′-Azinobis-(3-ethylbenzothiazoline-6-sulfonate (ABTS) radical cation (Sigma, St. Louis, USA) obtained by chemical conversion of ABTS with potassium persulfate (K2S2O8). As a positive control Trolox was co-tested. The degree of de-colorization was determined photometrically at 734 nm. Results are averaged from 2 independent experiments performed in quadruple technical replicates. The anti-oxidative capacity is expressed in IC50 values (concentration that scavenges 50% of the cationic radical relative to the untreated ABTS solution), which is determined by 4-parameter logistic regression.

[7] = tested on: IL8; test: IL8 ELISA on HaCaT cells, inflammation triggered with IL1α; type: cell-based, human; details: for anti-inflammatory activity (IL8 secretion), in words: Example 2; for inhibition at 2.2 µM / inhibition at 4.6 µM / inhibition at 10 µM: Homo sapiens, read-out: IL8 inhibition; for inhibition at 2.2 µM / inhibition at 4.6 µM / inhibition at 10 µM / IL8 inhibition: HaCaT
From the text: Inflammation in the skin occurs after UV or chemical exposure, microbial infection or wounding to form a defense against pathogens. However, inflammation in response to UV is associated with degenerative processes in the skin resulting in photoaging, wrinkle and age spot formation. In order to identify the Anti-inflammatory (AI) potential of the test samples the inflammatory mediators interleukin 8 (IL8) were quantified, which initiate and mediate inflammation through recruitment of inflammatory cells from the vasculature. Another object has been identification of the synergistic activity of the test substances. For this purpose, the individual cellular AI potential of bisabolol and synthetic CBD (hereinafter referred to as “SymDStress” obtained from Symrise AG, Holzminden, Germany) with their combination in 100:5, 100:4, 100:3, 100:2 and 100:1 ratios were examined.
Interleukin 8 (IL-8) or CXCL8 is a chemokine produced by macrophages and other cell types such as epithelial cells, airway smooth muscle cells and endothelial cells. In humans, the interleukin-8 protein is encoded by the IL8 gene IL-8 is initially produced as a precursor which undergoes cleavage to create several active IL-8 isoforms. In culture, a 72 amino acid peptide is the major form secreted by all kinds of cells. Interleukin-8 is a key mediator associated with inflammation where it plays a key role in neutrophil recruitment and neutrophil degranulation. As an example, it has been cited as a pro-inflammatory mediator in gingivitis, psoriasis and other diseases. IL8 secretion is increased by various kinds of stress including UV & oxidant stress, which thereby cause the recruitment of inflammatory cells and induces a further increase in oxidant stress mediators, making it a key parameter in localized inflammation.
The ELISA assay uses a solid-phase type of enzyme immunoassay (EIA) to detect the presence of a protein in a liquid sample using antibodies directed against the protein to be measured. Performing an ELISA involves at least one antibody with specificity for that particular protein. The sample with an unknown amount of protein is immobilized on a solid support (usually a polystyrene microtiter plate). After the protein is immobilized, the detection antibody is added, forming a complex with the protein. The detection antibody can be covalently linked to an enzyme or can itself be detected by a secondary antibody that is linked to an enzyme through bio-conjugation. Between each step, the plate is typically washed with a mild detergent solution to remove any proteins or antibodies that are non-specifically bound. After the final wash step, the plate is developed by adding an enzymatic substrate to produce a visible signal, which indicates the quantity the protein to be measured in the sample.
In the present test approach, the IL8 produced and secreted by cells were determined in an Enzyme linked immunosorbance assay (ELISA) from cell supernatants utilizing antibodies detecting the IL8. The assay was performed on HaCaT cells by addition of test substances and their incubation for 6 h (37° C.). Afterwards, inflammation was triggered with IL1α for 2 h or respectively 24 h and IL8 was measured. Therefore, the quantitative sandwich enzyme immunoassay technique was employed. A monoclonal antibody specific for human IL-8 was pre-coated onto a microplate. Standards and samples/supernatants were pipetted into the wells and any IL-8 present was bound by the immobilized antibody. After washing away any unbound substances, an enzyme-linked polyclonal antibody specific for human IL-8 was added to the wells. Following a wash to remove any unbound antibody-enzyme reagent, a substrate solution was added. A color developed in proportion to the amount of IL-8 bound in the initial step. Therefore, the IL8 concentrations for unknown samples are interpolated from the standard curve. […]

[8] = Table 1, 0.000034 % (0.0011 mM)
[9] = Table 1, 0.000074 % (0.0023 mM)
[10] = Table 1, 0.000159 % (0.0050 mM)
[11] = Table 1, 0.000343 % (0.0110 mM)

Compound: Tocopherol
- discoloration of solution, in words [1]: can prevent solution from discoloration

Compound: O=C([O-])CC[C@@H](C(=O)[O-])N(CC(=O)[O-])CC(=O)[O-].[Na+].[Na+].[Na+].[Na+] [Tetrasodium Glutamate Diacetate]
- discoloration in the end-formulation, in words ([2]; Table 9, FIG. 4): reduced discoloration

Compound: C=C(C)[C@@H]1CCC(C)=C[C@H]1c1c(O)cc(CCCCC)cc1O [CBD (synthetic), cannabidiol]
- recrystallization in formulation ([3]; 0.025% CBD, after 1M 5° C.): recrystallization can be observed
- recrystallization in emulsion ([3]; after 1M at Room temperature dark (RTD) storage): recrystallization in emulsion is observed
- ROS reduction ([4]; Table 5, 0.0000031 % (0.0001 mMol/l)): 24.01%
- ROS reduction ([4]; Table 5, 0.0000063 % (0.0002 mMol/l)): 35.43%
- ROS reduction ([4]; Table 5, 0.0000126 % (0.0004 mMol/l)): 34.74%
- ROS reduction ([4]; Table 5, 0.0000157 % (0.0005 mMol/l)): 34.55%
- ROS reduction ([4]; Table 5, 0.0000397 % (0.0013 mMol/l)): 40.61%
- ROS reduction ([4]; Table 5, 0.0000496 % (0.0016 mMol/l)): 48.96%
- ROS reduction ([4]; Table 5, 0.000094 % (0.0003 mMol/l)): 40.4%
- ROS reduction ([4]; Table 6, 0.000001256 % (0.00004 mMol/l)): 7.20%
- ROS reduction ([4]; Table 6, 0.000001570 % (0.00005 mMol/l)): −5.44%
- reducing intracellular ROS expression ([4]; summary of Table 5): up to 50%
- water solubility, in words [5]: low water solubility
- AOX capacity compared to the technical positive control, in words [6]: higher AOX capacity
- Anti-oxidative capacity ([6]; 0.0000160 %): 23%
- Anti-oxidative capacity ([6]; 0.0000310 %): 28%
- Anti-oxidative capacity ([6]; 0.000160 %): 84%
- Anti-oxidative capacity ([6]; 0.000310 %): 96%
- Anti-oxidative capacity ([6]; 0.000470 %): 100%
- Anti-oxidative capacity ([6]; 0.000630 %): 100%
- anti-inflammatory activity (IL8 secretion), in words [7]: significant anti-inflammatory activity
- inhibition at 2.2 µM [7]: 6%
- inhibition at 4.6 µM [7]: 18%
- inhibition at 10 µM [7]: 31%
- IL8 inhibition [7, 8]: −0.84%
- IL8 inhibition [7, 9]: 13.91%
- IL8 inhibition [7, 10]: 25.98%
- IL8 inhibition [7, 11]: 34.25%
- IL8 inhibition ([7]; Table 3, 0.000150 % (0.005 mM)): 21%

Compound: CC(C)=CCC[C@](C)(O)[C@@H]1CC=C(C)CC1 [α-bisabolol, alpha-bisabolol]
- ROS reduction ([4]; Table 6, 0.00002847 % (0.00100 mMol/l)): 10.61%
- anti-inflammatory activity (IL8 secretion), in words [7]: opposite effect
- inhibition at 2.2 µM ([7]; Table 2, 0.0022 mM): -14%
- inhibition at 4.6 µM ([7]; Table 2, 0.0046 mM): -3%
- inhibition at 10 µM ([7]; Table 2, 0.01000 mM): 1%
- IL8 inhibition ([7]; Table 3, 0.002847 % (0.100 mM)): 39%

Compound: C=C(C)[C@@H]1CCC(C)=C[C@H]1c1c(O)cc(CCCCC)cc1O [CBD (natural), cannabidiol, reference compound]
- IL8 inhibition [7, 8]: −0.85%
- IL8 inhibition [7, 9]: 4.84%
- IL8 inhibition [7, 10]: 11.42%
- IL8 inhibition [7, 11]: 31.90%

Compound: O=C([O-])CN(CCN(CC(=O)[O-])CC(=O)O)CC(=O)O.[Na+].[Na+] [Disodium EDTA]
- discoloration of formulation, in words ([2]; after 1M storage at RTL, FIG. 3): excellent stabilizing agent against discoloration
